Patent publication US12209071B2, “Triazine derivatives for treating diseases relating to neurotrophins” (AlzeCure Pharma AB, priority 2018, dated 2025)

Experiments:
FGFR1 = molecular target: T1, FGFR1 (Homo sapiens, UniProt P11362); test: Enzyme Fragment Complementation cell-based assay, FGFR1; details: cryopreserved U2OS-cells expressing FGFR1; ligand 10 ng/mL; 3 hours incubation
T1 construct: expressed in transfected cells; host or cells: U2OS (cryopreserved)
Excerpt: (§1) A high throughput cell-based screen has been used to identify positive modulators of TrkA, TrkB and TrkC. The screen involves the use of cell-based assay overexpressing TrkA, TrkB or TrkC. The purpose of the assay is to identify compounds that modulate neurotrophin signalling (Forsell et al 2012). The assay can be used in inhibitor mode using a high concentration of ligand, in modulator mode using an intermediate concentration and in agonist mode using a low concentration of ligand.
(§2) The assay uses Enzyme Fragment Complementation (EFC) technique, which is a proximity-based assay. Briefly, cells used in this assay over-express two fusion proteins, i.e. the receptor, which can be either one of TrkA, TrkB, TrkC, IGF1R or FGFR1, fused to a small peptide of beta-galactosidase and an adaptor protein, i.e. SHC1 (or any other Trk-adaptor protein) fused to the major part of beta-galactosidase. […] The proximity between the small activating peptide on the receptor and the major part of beta-galactosidase on the adaptor protein leads to an active beta-galactosidase enzyme. The activation of the receptor is quantified by measuring the amount of active beta-galactosidase by its conversion of a non-luminescent substrate into a luminescent product.
(§3) U2OS-cells, over-expressing TrkA or TrkB or TrkC, are plated in 96- or 384-well plates and incubated overnight. Alternatively, cryopreserved HEK293-cells expressing IGFR1 or cryopreserved U2OS-cells expressing FGFR1 were plated in 96- or 384-well plates. On the following day, test compound was pre-mixed with ligand (NGF, BDNF, NT-3, IGF-1 or basic fibroblast growth factor (bFGF(FGF-2))) and the ligand-compound mixture is then added to the cells to yield a final ligand concentration of 10 ng/mL. After 3 hours of incubation at room temperature, the incubation is stopped by the addition of a beta-galactosidase substrate mixture containing detergents. The substrate mixture is incubated for 60 minutes at ambient temperature. The luminescence is thereafter read by the use of a plate reader.

IGF1R = molecular target: T2, IGF1R (Homo sapiens, UniProt P08069); test: Enzyme Fragment Complementation cell-based assay, IGF1R; details: cryopreserved HEK293-cells expressing IGFR1; ligand 10 ng/mL; 3 hours incubation
T2 construct: expressed in transfected cells; host or cells: HEK293 (cryopreserved)
Excerpt: as §1, §2, §3

TrkA = molecular target: T3, TrkA (Homo sapiens, UniProt P04629); test: Enzyme Fragment Complementation cell-based assay, TrkA; details: U2OS-cells over-expressing TrkA; ligand 10 ng/mL; 3 hours incubation
T3 construct: expressed in transfected cells; host or cells: U2OS
Outline: (§4)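 U2OS cells overexpressing TrkA, TrkB, TrkC or FGFR1, with receptor and SHC1 fused to complementary beta-galactosidase fragments. Compound pre-mixed with cognate ligand (NGF, BDNF, NT-3 or bFGF; 10 ng/mL final), 3 h at room temperature. Beta-galactosidase substrate with detergent added for 60 min; luminescence read.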

[1] = test system: mice treated with scopolamine; test: Passive avoidance task; format: in vivo; details: C57/Bl6 mice; s.c. once per day for 4 days prior to PA training; scopolamine 0.3 mg/kg s.c. 30 min prior to training; FIG. 1
Description: Passive avoidance (PA) is an aversive learning task based on classical (Pavlovian) fear conditioning that allows for analysis of both facilitation and impairment of memory function by adjusting the unconditioned stimulus, i.e. the electrical foot shock. Commonly a cognitive-impairing agent is administered to the animals to mimic the neurochemical disturbances present in various cognitive disorders e.g. cholinergic (scopolamine) and glutamatergic (MK-801) deficits.
Prior to testing, the animals are brought to the experimental room where they are allowed to habituate for 60 min. The test is conducted using a modified shuttle box with two communicating compartments of equal size with a small sliding door built into the separating wall and a stainless-steel bar floor. One of the compartments is not illuminated and thus black whereas the other compartment (the light one) is illuminated by an electric bulb, installed on the top of a plexiglass cover. The PA training is conducted in a single session. […] Latency to cross over into the dark compartment (training latency) is recorded. […] The latency to cross over into the dark compartment with all four feet is measured (retention latency) as well as time in bright compartment and a number of other relevant parameters (e.g. number of visits in the dark compartment). […]

TrkB = molecular target: T4, TrkB (Homo sapiens, UniProt Q16620); test: Enzyme Fragment Complementation cell-based assay, TrkB; details: U2OS-cells over-expressing TrkB; ligand 10 ng/mL; 3 hours incubation
T4 construct: expressed in transfected cells; host or cells: U2OS
Outline: as §4

T2 sequence (P08069 31-736 limits assumed): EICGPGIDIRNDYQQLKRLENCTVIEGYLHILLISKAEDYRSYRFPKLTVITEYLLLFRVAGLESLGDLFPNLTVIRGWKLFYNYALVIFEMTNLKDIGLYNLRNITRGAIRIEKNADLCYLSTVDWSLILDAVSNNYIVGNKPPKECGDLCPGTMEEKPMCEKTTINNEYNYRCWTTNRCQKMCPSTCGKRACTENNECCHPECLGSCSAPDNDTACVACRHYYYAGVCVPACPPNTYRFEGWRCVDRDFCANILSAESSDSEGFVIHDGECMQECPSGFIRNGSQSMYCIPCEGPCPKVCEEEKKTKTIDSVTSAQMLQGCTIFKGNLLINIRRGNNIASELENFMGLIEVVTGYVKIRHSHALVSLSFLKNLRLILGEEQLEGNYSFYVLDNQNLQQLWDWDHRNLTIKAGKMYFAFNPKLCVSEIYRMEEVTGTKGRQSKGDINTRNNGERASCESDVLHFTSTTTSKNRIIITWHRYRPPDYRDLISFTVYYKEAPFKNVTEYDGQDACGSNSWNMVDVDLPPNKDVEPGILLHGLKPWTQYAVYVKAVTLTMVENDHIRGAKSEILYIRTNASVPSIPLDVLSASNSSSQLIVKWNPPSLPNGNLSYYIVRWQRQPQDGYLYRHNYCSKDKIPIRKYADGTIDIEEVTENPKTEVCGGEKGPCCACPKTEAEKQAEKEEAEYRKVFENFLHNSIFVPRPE
T2 sequence (P08069 741-1367 limits assumed): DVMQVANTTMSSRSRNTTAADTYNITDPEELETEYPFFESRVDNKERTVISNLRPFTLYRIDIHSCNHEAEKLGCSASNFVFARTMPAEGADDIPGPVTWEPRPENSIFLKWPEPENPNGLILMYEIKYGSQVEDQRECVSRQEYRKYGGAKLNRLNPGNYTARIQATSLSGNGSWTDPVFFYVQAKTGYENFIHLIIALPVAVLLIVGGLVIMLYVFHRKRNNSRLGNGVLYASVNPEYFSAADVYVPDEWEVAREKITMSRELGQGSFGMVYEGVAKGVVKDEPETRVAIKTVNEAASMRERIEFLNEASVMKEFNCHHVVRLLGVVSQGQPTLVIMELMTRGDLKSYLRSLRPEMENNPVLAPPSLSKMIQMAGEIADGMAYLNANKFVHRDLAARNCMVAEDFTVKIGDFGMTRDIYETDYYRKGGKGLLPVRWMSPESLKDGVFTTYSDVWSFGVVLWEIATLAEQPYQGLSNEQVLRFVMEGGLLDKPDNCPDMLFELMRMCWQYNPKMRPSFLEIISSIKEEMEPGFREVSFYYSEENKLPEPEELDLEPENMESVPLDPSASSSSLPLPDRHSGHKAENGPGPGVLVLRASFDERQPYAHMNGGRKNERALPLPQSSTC
T1 sequence (P11362 22-822): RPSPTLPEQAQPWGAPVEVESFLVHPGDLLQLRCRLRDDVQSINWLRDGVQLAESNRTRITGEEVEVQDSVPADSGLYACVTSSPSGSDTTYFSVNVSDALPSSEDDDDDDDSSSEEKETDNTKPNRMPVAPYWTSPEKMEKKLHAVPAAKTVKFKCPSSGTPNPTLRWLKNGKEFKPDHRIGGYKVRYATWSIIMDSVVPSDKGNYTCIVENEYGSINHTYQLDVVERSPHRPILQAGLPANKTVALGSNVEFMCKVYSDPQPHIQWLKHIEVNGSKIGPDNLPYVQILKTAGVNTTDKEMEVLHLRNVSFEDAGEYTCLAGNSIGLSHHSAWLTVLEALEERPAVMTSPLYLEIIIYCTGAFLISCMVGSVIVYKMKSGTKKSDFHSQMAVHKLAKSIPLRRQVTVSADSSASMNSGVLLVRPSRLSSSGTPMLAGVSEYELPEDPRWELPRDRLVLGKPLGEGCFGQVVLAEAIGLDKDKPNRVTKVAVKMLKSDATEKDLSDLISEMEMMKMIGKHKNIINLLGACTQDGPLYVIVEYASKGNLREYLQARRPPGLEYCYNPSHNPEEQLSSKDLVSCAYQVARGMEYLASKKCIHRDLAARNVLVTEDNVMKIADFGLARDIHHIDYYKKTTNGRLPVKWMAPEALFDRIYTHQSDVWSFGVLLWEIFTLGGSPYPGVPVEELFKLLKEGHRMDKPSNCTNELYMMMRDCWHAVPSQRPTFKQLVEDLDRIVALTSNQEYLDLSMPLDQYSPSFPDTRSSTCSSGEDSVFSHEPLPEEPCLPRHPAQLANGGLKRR
T3 sequence (P04629 33-796): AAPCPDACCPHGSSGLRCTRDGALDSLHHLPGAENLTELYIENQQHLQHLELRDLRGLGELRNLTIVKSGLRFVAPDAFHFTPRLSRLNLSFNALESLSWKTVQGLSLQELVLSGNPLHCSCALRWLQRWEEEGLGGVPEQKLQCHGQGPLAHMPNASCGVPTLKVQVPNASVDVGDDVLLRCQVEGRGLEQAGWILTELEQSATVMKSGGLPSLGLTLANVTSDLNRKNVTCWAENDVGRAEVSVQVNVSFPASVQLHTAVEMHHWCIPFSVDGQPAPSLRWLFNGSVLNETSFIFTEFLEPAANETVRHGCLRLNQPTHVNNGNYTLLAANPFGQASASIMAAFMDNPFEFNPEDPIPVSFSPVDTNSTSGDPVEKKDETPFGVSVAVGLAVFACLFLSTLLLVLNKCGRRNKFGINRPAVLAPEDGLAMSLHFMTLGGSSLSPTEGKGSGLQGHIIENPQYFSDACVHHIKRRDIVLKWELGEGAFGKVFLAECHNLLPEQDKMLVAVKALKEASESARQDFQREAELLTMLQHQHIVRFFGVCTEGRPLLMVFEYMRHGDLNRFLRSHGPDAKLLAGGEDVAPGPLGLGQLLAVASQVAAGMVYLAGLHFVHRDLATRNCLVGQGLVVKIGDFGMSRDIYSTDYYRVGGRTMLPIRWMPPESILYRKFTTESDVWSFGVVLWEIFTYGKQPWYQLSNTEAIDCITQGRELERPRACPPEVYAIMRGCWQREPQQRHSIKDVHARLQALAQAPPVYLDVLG
T4 sequence (Q16620 32-822): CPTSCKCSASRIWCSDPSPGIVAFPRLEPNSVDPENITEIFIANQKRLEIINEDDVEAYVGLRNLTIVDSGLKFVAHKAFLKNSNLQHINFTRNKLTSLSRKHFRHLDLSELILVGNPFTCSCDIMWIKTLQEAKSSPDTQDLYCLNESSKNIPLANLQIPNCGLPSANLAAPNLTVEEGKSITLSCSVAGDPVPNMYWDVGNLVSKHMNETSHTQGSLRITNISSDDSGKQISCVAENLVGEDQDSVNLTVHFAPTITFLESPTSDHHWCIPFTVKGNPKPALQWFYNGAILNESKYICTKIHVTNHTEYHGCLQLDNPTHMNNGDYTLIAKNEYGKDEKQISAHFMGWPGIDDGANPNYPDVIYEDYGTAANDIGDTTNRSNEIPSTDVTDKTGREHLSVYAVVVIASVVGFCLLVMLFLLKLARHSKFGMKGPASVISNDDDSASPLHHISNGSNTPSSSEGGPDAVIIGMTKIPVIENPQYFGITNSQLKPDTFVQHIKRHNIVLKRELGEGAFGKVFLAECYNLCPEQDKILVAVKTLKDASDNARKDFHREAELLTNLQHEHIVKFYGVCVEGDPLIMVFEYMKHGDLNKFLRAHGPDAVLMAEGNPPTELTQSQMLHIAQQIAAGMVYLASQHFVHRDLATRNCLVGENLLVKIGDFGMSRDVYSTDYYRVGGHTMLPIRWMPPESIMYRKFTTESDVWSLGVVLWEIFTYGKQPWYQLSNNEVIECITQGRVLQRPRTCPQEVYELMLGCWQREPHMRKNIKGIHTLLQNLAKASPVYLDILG

Cc1cc(-n2c(=O)[nH]c(=O)n(-c3ccccc3)c2=O)ccc1Oc1ccccc1 [Example 5, 1-(3-methyl-4-phenoxyphenyl)-3-phenyl-1,3,5-triazinane-2,4,6-trione]
EC50 (FGFR1): 290 nM | EC50 (IGF1R): 250 nM | EC50 (TrkA): 340 nM | retention latency within the bright area (cognitive function) [1]: increased retention latency | EC50 (TrkB): 390 nM
